# Experimental data taken from patent publication US6194437A (Warner-Lambert Company, priority 1999, dated 2001).
# Experiments:
# [1] = biological target: T1, cloned human NMB-preferring receptors expressed in CHO cells (Homo sapiens, UniProt P28336); assay: Measurement of extracellular acidification (CYTOSENSOR) in CHO-NMB cells; type: cell-based; conditions: NMB-preferring receptor (BB1), antagonist 30 minutes prior to agonist, 37° C.
# T1 construct: functional calcium (Fura-2) and Cytosensor acidification assays
# Description: (§1) The compounds of the invention have been tested in in vitro functional assays using cloned human NMB-preferring receptors expressed in CHO cells.
# (§2) Protocols for functional assays:
# 2. Measurement of extracellular acidification (CYTOSENSOR)
# This acidification rate is detected as a change in potential across a silicon light addressable sensor, during periods of media cessation (McConnell, et al., 1992).
# CHO-NMB Cells seeded on polycarbonate microporous capsule cups were placed insensor chambers at 37° C. inside the microphysiometer, and maintained by a flow of nonbuffering Ham's F12 nutrient media (growth media without NaHCO3, pH 7.3-7.4) at approximately 120 μL/min. The flow was halted for 22 seconds at the end of each 2 minute repeated cycle, and the rate of acidification (μ volts/sec) measured for 15 seconds during that period.
# Agonists were introduced sequentially every 28 to 30 minutes to the perfusing media, 20 seconds before flow-off periods, and removed after two rate measurements via the automatic valve-switch.
# The effects of various antagonists were determined after continuous perfusion 30 minutes prior to, and throughout the application of agonists. All agents were applied at the working pH of the media.
# [2] = biological target: T2, cloned human GRP-preferring receptor (BB2) (Homo sapiens, UniProt P30550); assay: Receptor binding assay, cloned human GRP-preferring receptor (BB2), [125I][Tyr4]bombesin displacement; conditions: CHO-K1 cell membranes, 90 minutes incubation
# T2 construct: expressed in transfected cells
# Description: The compounds of the invention have been evaluated in receptor binding assays which measure the affinity of the novel compounds in a cloned human NMB-preferring receptor (BB1) assay and in a cloned human GRP-preferring receptor (BB2) assay. Protocol for Binding Assays […] For binding experiments, cells were harvested by trypsinization, and stored frozen at -70° C. in Ham's F12 culture medium containing 5% DMSO until required. On the day of use, cells were thawed rapidly, diluted with an excess of culture medium, and centrifuged for 5 minutes at 2000 g. Cells were resuspended in 50 mM Tris-HCl assay buffer (pH 7.4 at 21° C., containing 0.02% BSA, 40 μg/ml bacitracin, 2 μg/mL chymostatin, 4 μg/mL leupeptin, and 2 μM phosphoramidon), counted, and polytronned (setting 5, 10 sec) before centrifuging for 10 minutes at 28,000 g. The final pellet was resuspended in assay buffer to a final cell concentration of 1.5×10^5 /mL. […] Radioactivity bound was determined using a gamma counter.
# [3] = biological target: T3, cloned human NMB-preferring receptor (BB1) (Homo sapiens, UniProt P28336); assay: Receptor binding assay, cloned human NMB-preferring receptor (BB1), [125I][Tyr4]bombesin displacement; conditions: CHO-K1 cell membranes, 60 minutes incubation
# T3 construct: expressed in transfected cells
# Description: For binding experiments, cells were harvested by trypsinization, and stored frozen at -70° C. in Ham's F12 culture medium containing 5% DMSO until required. On the day of use, cells were thawed rapidly, diluted with an excess of culture medium, and centrifuged for 5 minutes at 2000 g. Cells were resuspended in 50 mM Tris-HCl assay buffer (pH 7.4 at 21° C., containing 0.02% BSA, 40 μg/ml bacitracin, 2 μg/mL chymostatin, 4 μg/mL leupeptin, and 2 μM phosphoramidon), counted, and polytronned (setting 5, 10 sec) before centrifuging for 10 minutes at 28,000 g. The final pellet was resuspended in assay buffer to a final cell concentration of 1.5×10^5 /mL. […] Radioactivity bound was determined using a gamma counter.
# [4] = biological target: T1, cloned human NMB-preferring receptors expressed in CHO cells; assay: Measurement of intracellular calcium levels ([Ca2+]i mobilization, Fura-2) in CHO cells; type: cell-based; conditions: NMB-preferring receptor (BB1), read-out: [Ca2+]i Mobilization KE
# Description: as §1, §2
# 1. Measurement of intracellular calcium levels
# Culture of Chinese hamster ovary cells
# Chinese hamster ovary cells were routinely grown as monolayers in Ham's F12 nutrient mixture supplemented with 10% FBS and […], and maintained at 37° C. under 5% CO2. Cells were passaged every 3 to 4 days. At each passaging, cells were seeded at a density of 3 to 6 million per 175 cm^2 flask. […]
# Plated cells were incubated with 2 μM Fura-2-AM for between 45 and 120 minutes at 25° C. to 29° C. […] Single coverslips were then mounted in a chamber on top of an inverted fluorescence microscope and perfused with a Krebs-Hepes assay buffer (composition in mM: NaCl 118, KCl 4.7, MgSO4 1.2, CaCl^2 1.2, KH^2 PO^4 1.2, Hepes 10, glucose 11, pH 7.2 at 37° C.) {332}.
# Measurements of [Ca^2+ ]^i in individual cells were made from the fluorescence ratio (excitations […] for Fura-2) using a specially designed filter wheel assembly, CCD camera or photomuliplier tubes, and specially designed suites of software (MAGICAL OR phocal, Applied Imaging, Sunderland, UK) which samples emission following excitation at different wavelengths at regular intervals. […]
# T1 sequence (P28336 whole entry): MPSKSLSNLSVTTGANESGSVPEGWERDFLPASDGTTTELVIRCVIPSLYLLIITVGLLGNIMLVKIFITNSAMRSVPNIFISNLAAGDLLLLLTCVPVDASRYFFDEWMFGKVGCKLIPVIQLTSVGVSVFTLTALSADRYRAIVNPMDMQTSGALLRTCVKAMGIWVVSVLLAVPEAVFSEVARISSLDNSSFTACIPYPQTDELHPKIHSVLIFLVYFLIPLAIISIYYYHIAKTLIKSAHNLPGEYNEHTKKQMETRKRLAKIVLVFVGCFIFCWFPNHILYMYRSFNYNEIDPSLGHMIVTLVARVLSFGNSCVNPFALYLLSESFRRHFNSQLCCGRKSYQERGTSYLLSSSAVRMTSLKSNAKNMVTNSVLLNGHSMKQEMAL
# T3 sequence (P28336 whole entry): as above
# T2 sequence (P30550 whole entry): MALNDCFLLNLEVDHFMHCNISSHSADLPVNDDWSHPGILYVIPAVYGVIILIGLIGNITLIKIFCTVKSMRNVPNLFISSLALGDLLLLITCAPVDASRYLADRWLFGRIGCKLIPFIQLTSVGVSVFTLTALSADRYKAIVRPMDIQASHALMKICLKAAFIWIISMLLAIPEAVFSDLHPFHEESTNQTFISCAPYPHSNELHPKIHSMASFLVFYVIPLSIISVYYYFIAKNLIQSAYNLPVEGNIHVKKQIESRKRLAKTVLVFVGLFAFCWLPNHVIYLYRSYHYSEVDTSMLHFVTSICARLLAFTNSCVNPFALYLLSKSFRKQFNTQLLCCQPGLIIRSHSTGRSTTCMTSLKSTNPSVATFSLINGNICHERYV
Acidification Response appKB [1],Ki [2],Ki [3],Kb [4],Structure (SMILES)
7.6,> 10000 nM,5 nM,18 nM,"CC(C)c1cccc(C(C)C)c1NC(=O)N[C@@](C)(Cc1c[nH]c2ccccc12)C(=O)NCC1(c2ccccn2)CCCCC1 [Example 1, 2-[3-(2,6-Diisopropyl-phenyl)-ureido]-3-(1H-indol-3-yl)-2-methyl-N-(1-pyridin-2-yl-cyclohexylmethyl)-propionamide]"
1.0,19 nM,0.15 nM,1.2 nM,C[C@@](Cc1c[nH]c2ccccc12)(NC(=O)Nc1ccc([N+](=O)[O-])cc1)C(=O)NCC1(c2ccccn2)CCCCC1 [Example 14]
